Experimental data taken from patent publication US7811797B2, “α-isomaltosylglucosaccharide-forming enzyme, process and uses of the same” (Kabushiki Kaisha Hayashibara Seibutsu Kagaku Kenkyujo, priority 2000, dated 2010).

What was measured:
[1] = tested on: Clostridium perfringens JCM 3816; format: cell-based; conditions: PYF medium with 0.5% saccharide, 37° C., four days, anaerobic
[2] = Reducing power on the Somogyi-Nelson's method; format: physicochemical
Amylopsin = molecular target: T1, Amylopsin (Homo sapiens, UniProt P04746)
T1 sequence (P04746 16-511): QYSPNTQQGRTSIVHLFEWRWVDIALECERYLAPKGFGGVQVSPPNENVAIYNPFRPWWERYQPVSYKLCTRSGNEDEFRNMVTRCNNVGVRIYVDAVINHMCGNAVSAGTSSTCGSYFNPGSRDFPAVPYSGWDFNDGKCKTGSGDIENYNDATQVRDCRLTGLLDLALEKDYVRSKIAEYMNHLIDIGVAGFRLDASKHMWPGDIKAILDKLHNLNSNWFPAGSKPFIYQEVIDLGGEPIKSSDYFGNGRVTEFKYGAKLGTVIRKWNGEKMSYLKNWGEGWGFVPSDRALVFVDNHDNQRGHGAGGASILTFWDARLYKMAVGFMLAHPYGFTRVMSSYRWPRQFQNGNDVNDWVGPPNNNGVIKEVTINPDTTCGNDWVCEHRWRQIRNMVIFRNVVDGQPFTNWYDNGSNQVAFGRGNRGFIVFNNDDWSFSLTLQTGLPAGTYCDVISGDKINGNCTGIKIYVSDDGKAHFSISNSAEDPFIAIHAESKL

Salivary amylase = molecular target: T2, Salivary amylase (Homo sapiens, UniProt P0DUB6)
T2 sequence (P0DUB6 16-511): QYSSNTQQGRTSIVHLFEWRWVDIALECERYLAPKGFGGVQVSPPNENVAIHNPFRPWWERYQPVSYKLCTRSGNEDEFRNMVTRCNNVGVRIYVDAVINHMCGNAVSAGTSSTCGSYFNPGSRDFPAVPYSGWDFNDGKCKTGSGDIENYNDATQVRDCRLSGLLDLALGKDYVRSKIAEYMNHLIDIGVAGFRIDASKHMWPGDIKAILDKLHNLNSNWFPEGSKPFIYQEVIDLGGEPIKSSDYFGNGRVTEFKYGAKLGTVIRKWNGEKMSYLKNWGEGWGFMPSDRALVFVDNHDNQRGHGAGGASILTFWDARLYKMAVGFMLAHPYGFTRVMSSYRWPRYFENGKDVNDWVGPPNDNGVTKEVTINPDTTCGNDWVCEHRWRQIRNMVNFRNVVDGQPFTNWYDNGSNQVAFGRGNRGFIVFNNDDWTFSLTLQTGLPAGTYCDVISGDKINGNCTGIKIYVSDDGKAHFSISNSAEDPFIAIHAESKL

[3] = tested on: Bacteroides vulgatus JCM 5826; assay: Assimilation test, Bacteroides vulgatus; format: cell-based; conditions: PYF medium with 0.5% saccharide, 37° C., four days, anaerobic
[4] = tested on: α-isomaltosylglucosaccharide-forming enzyme; assay: Action on saccharides (substrates), Enzyme of Strain N75; format: biochemical, Bacillus globisporus N75; set-up: key: −: it showed no change; +: it showed a slight reduction of the color spot of the substrate and the formation of other reaction product; ++: it showed a high reduction of the color spot of the substrate and the formation of other reaction product; +++: it showed a substantial disappearance of the substrate spot and the formation of other reaction product; conditions: two units/g substrate, substrate 2% (w/v), 30° C., pH 6.0, 24 hours, TLC
Procedure, shortened: (§1)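 Purified enzyme from each strain was added at 2 units/g substrate to each of 24 saccharides at 2% (w/v). Incubation ran 24 h at 30° C, pH 6.0, or pH 8.4 for the A19 enzyme. TLC compared reaction mixtures before and after incubation to show whether each substrate was acted on.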

[5] = tested on: α-isomaltosylglucosaccharide-forming enzyme; assay: Action on saccharides (substrates), Enzyme of Strain A19; format: biochemical, Arthrobacter globiformis A19; set-up: key: −: it showed no change; +: it showed a slight reduction of the color spot of the substrate and the formation of other reaction product; ++: it showed a high reduction of the color spot of the substrate and the formation of other reaction product; +++: it showed a substantial disappearance of the substrate spot and the formation of other reaction product; conditions: two units/g substrate, substrate 2% (w/v), 30° C., pH 8.4, 24 hours, TLC
Procedure, shortened: as §1

SMILES | Assimilability [1] | reducing power [2] | Decomposition percentage (%) by digestive enzyme (Amylopsin) [%] | Decomposition percentage (%) by digestive enzyme (Salivary amylase) [%] | Assimilability [3] | Enzymatic action, Enzyme of Strain N75 [4] | Enzymatic action, Enzyme of Strain A19 [5]
OCC1OC2OCC3O[C@H](O[C@H]4C(O)C(CO)OC(OCC5O[C@H](O[C@@H](C1O)C2O)C(O)C(O)[C@@H]5O)C4O)C(O)C(O)[C@@H]3O (stereo partly drawn) [Cyclotetrasaccharide, cyclo{→6)-α-D-glucopyranosyl-(1→3)-α-D-glucopyranosyl-(1→6)-α-D-glucopyranosyl-(1→3)-α-D-glucopyransoyl-(1→}] | − (judged negative (−) when the post culture had a pH of 6.0 or higher) | below a detectable level | 0.0 | 0.0 | − (judged negative (−) when the post culture had a pH of 6.0 or higher) |  | 
OC[C@@H](O)[C@@H](O[C@H]1O[C@H](CO)[C@@H](O)[C@H](O)[C@H]1O)[C@H](O)[C@@H](O)CO [Maltitol, reference compound] |  |  |  |  |  | − | −
